Experiments:
[1] = test system: Erythroleukemic cell line (K562); assay: Incubation of CD33- erythroleukemic cell line K562 with CA/PCQ, viable cell count; format: cell-based; settings: for % Inhibition of cell growth (After 3 days of incubation): 2×10^5 cells per ml per well
Description: This cell line was collected from American Type Culture Collection (ATCC), VA, USA. This cell line is […]. […] Cells were then washed and counted for viability.

CD33+ myeloid cells = settings: earlier patent filing; cited from earlier work
leukemic cells = assay: Biological activity (destruction of leukemic cells) of Piper betel fractions and HPLC peaks; format: cell-based; settings: fractions, zones and HPLC peaks of Piper betel leaf extract
Procedure: Collected material was examined for biological activity i.e. destruction of leukemic cells. […] 10 gm of above-mentioned material was loaded on Sephadex LH-20 column and chromatographed with water, water-methanol (1:1) and methanol as eluent. Three different fractions thus obtained from three different solvent systems were separately checked for biological activity. […] The column was equilibrated with methanol-water-acetic acid (23:76:1), flow rate was maintained at 1.0 ml per min and peaks were identified at 280 nm. According to the retention time (RE) different peaks could be divided into three zones, ZA/ZB and ZC (FIG. 1). ZA had 4 major peaks whereas ZB had very small to moderate 10 peaks and ZC had two distinct peaks. It was convenient to observe biological activity of three zones AA, ZB and ZC, which were separately tested on leukemia cells for destructive activity.

CML patient's PBMC = assay: Incubation of CML patient's PBMC (leukemic cells) with CA/PCQ, viable cell count; format: cell-based, human; settings: for % Inhibition of cell growth (After 3 days of incubation): CML patient's leukemic cells, 2×10^5 cells per ml per well
Procedure: Whole blood (10 ml each) was drawn from previously diagnosed myeloid leukemic patients, one patient was diagnosed as AML and the other one was diagnosed as CML. Mononuclear cells were separated by Ficoll/hypaque density gradient centrifugation. […] Cells were then washed and counted for viability.

Normal PBMC = assay: Growth inhibition of normal individuals' PBMC by CA/PCQ; format: cell-based, human; settings: Normal individual's PBMC, 3 days, 2×10^5 cells per ml per well
Description: Preparation of peripheral blood mononuclear cells (PBMC) from normal individuals. Whole blood was collected and mononuclear cells were separated by Ficoll/Hypaque density gradient centrifugation.

[2] = test system: Promonocytic cell line (U937); assay: Incubation of CD33+ promonocytic cell line U937 with CA/PCQ, viable cell count; format: cell-based; settings: for % Inhibition of cell growth (After 3 days of incubation): 2×10^5 cells per ml per well
Procedure: Culture of Promonocytic cell line U937. […] This cell line is CD33^+. Incubation of CD33^+ cell line U937 with CA. […] Cells were then washed and counted for viability.

**Q.** Which results are given for `O=C(C=Cc1ccc(O)cc1)OC1CC(O)(C(=O)O)CC(O)C1O` (stereo not shown) [PCQ, 3-o-p-Coumaryl quinic acid]?
**A.** % Inhibition of cell growth (After 3 days of incubation) ([1]; K562, 25.0 μg/ml): 4.00%; % Inhibition of cell growth (After 3 days of incubation) ([1]; K562, 50.0 μg/ml): 8.00%; growth inhibition of leukemic cell lines ([1]; K562, 2×10^6/ml/well, 25 μg/ml): up to 4%; CD33+ myeloid cells destruction (in words) (CD33+ myeloid cells): showed CD33+myeloid cells destruction; biological activity i.e. destruction of leukemic cells (in words) (leukemic cells): demonstrated considerable activity; growth inhibition of leukemic cell lines (CML patient's PBMC; CML leukemic cells, 2×10^6/ml/well, 25 μg/ml of PCQ): up to 2.38%; % Inhibition of cell growth (After 3 days of incubation) (CML patient's PBMC; 25.0 μg/ml): 2.38%; % Inhibition of cell growth (After 3 days of incubation) (CML patient's PBMC; 50.0 μg/ml): 4.76%; % Inhibition of cell growth (After 3 days of incubation) (Normal PBMC; 25.0 μg/ml): 0.00%; % Inhibition of cell growth (After 3 days of incubation) (Normal PBMC; 50.0 μg/ml): 1.67%; % Inhibition of cell growth (After 3 days of incubation) ([2]; U937, 25.0 μg/ml): 2.08%; % Inhibition of cell growth (After 3 days of incubation) ([2]; U937, 50.0 μg/ml): 4.17%; growth inhibition of leukemic cell lines ([2]; U937, 2×10^6/ml/well, 25 μg/ml of PCQ): up to 2.08%

From patent US20030229140A1, “Herbal molecule as potential anti-leukemic drug” (priority 2002, published 2003)
